Measured values reported in patent US12060330B2, “Therapeutic indazoles” (priority 2017, dated 2024).
Values after ≈ are worked out from the molar mass of the structure shown.

Experiments:
CYP enzymes = assay: Cytochrome P450 (CYP) inhibition; details: CYP enzymes except CYP2C19
[1] = tested on: mycolic acid biosynthesis; assay type: cell-based, M. tuberculosis
M. marinum = assay: MIC against nontuberculous mycobacteria
Kinetic solubility = details: pH 7.4 phosphate-buffered saline (PBS)
M. abscessus = assay: MIC against nontuberculous mycobacteria
M. tuberculosis [2] = assay: Killing studies using CFU measurements; assay type: cell-based
Caco-2 permeability = details: human
M. avium = assay: MIC against nontuberculous mycobacteria
[3] = Mouse liver microsome (MLM) stability
[4] = Dose escalation and drug tolerability in mice; assay type: in vivo
Protocol: All animal experiments were conducted in compliance with and approved by the Institutional Animal Care and Use Committee of the New Jersey Medical School, Rutgers University.
The mice were weighed and observed daily. Their behavior, drinking and feeding patterns, and feces were monitored and recorded. Upon necropsy, liver, gall bladder, kidney and spleen pathology were observed as well.

M. smegmatis = assay: MIC against nontuberculous mycobacteria
CYP2C19 = CYP2C19 (Homo sapiens, UniProt P33261); assay: Cytochrome P450 (CYP) inhibition; assay type: in vitro ADME
Chain of CYP2C19 (P33261 whole entry, species assumed): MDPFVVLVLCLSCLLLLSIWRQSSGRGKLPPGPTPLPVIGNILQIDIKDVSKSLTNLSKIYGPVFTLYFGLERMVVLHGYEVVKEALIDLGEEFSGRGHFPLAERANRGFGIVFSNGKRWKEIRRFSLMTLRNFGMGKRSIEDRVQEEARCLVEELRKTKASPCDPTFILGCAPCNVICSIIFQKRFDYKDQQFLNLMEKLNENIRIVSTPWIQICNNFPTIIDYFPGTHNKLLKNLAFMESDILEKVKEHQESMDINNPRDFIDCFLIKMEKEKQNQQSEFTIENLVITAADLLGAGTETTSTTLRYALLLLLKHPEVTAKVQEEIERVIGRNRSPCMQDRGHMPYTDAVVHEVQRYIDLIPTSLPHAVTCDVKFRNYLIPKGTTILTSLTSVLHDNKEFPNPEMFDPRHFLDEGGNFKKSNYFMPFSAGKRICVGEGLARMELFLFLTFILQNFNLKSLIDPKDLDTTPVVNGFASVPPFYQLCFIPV

[5] = Mouse pharmacokinetic studies (plasma, LC-MS/MS); assay type: in vivo; details: mice
Protocol: DG1167 levels in plasma were measured by LC-MS/MS in electrospray positive-ionization mode (ESI+) on a Sciex Qtrap 4000 triple-quadrupole mass combined with an Agilent 1260 HPLC using Analyst software. […] Multiple-reaction monitoring (MRM) of parent/daughter transitions in electrospray positive-ionization mode (ESI+) was used to quantify DG167. […] Extracts were vortexed for 5 minutes and centrifuged at 4000 RPM for 5 minutes. The supernatants were analyzed by LC-MS. Verapamil IS was sourced from Sigma-Aldrich.

M. tuberculosis H37Rv = assay: RNAseq transcriptional profiling; assay type: cell-based; details: single drug, 10× MIC, 4 h
M. fortuitum = assay: MIC against nontuberculous mycobacteria
KasA = KasA (Mycobacterium tuberculosis, UniProt P9WQD9); assay: Microscale thermophoresis (MST) binding assay; design: species or system M. tuberculosis; details: for EC50: read-out: EC50 (KasA interaction)
Chain of KasA (P9WQD9 whole entry): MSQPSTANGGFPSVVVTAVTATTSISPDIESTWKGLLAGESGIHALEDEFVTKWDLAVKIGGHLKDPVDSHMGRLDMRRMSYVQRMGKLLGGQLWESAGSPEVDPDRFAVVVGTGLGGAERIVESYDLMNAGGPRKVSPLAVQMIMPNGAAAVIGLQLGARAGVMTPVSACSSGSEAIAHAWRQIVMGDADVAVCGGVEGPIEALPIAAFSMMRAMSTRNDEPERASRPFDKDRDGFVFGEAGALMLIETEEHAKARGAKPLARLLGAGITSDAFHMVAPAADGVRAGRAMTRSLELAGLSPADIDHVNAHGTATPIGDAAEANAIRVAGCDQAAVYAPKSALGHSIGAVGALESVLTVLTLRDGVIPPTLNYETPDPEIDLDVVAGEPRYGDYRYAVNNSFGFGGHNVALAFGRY

M. tuberculosis [6] = assay: microbe, parasite or virus in culture; assay type: cell-based; details: for whole-cell activity (in words): SAR relative to DG167; for increase in potency over DG167: relative to DG167
M. tuberculosis [7] = assay: Lung CFU in infected mice (FIG. 10, PMID: 25421483); assay type: in vivo; details: compared to INH and vehicle only
M. tuberculosis [8] = details: cited from earlier work

Compound: CCCCS(=O)(=O)Nc1ccc2cnn(C)c2c1 [DG167, N-(1-methyl-1H-indazol-6-yl)butane-1-sulfonamide]
- CYP inhibition (in words) (CYP enzymes): did not significantly inhibit
- accumulation of FAS-I products [1]: caused accumulation of C16-C26 short-chain fatty-acids
- MIC (M. marinum): > 100 µM
- kinetic solubility (Kinetic solubility): 324 µM (≈ 86.6 µg/mL)
- MIC (M. abscessus): > 100 µM
- reduction of viable colony-forming units (CFU) (M. tuberculosis [2]; 10× or 20× MIC, over seven days): 2 log 10
- Papp A→B (Caco-2 permeability): 71.8 ×10⁻⁶ cm/s
- Papp B→A (Caco-2 permeability): 45.6 ×10⁻⁶ cm/s
- MIC (M. avium): > 100 µM
- MLM t1/2 ([3]; in the absence of NADPH): > 300 min
- MLM t1/2 ([3]; mouse liver microsomes): 10.1 min
- tolerability, dose escalation ([4]; 50 and 100 mg/kg, monitored 8 hours): well tolerated
- dose tolerability for 5 d ([4]; 5 d, DG167 50 or 100 mg/kg, or DG167 100 mg/kg with INH 25 mg/kg): did not show any behavioral changes or weight loss
- tolerability, dose escalation ([4]; higher doses (250, 500 mg/kg)): heavy breathing, hunched posture and decreased activity
- MIC (M. smegmatis): > 100 µM
- IC50 (CYP2C19): 12 µM
- half-life (t1/2) ([5]; IV 5 mg/kg): 19.8 min
- AUC [0-t] ([5]; IV 5 mg/kg, 5% DMA/40% PEG300/55% D5W): 1751.25 ng·h/mL
- AUC [0-t] ([5]; PO 25 mg/kg, 0.5% CMC/0.5% Tween 80, plasma): 8083.96 ng·h/mL
- time plasma levels maintained above the MIC ([5]; single oral dose 25 mg/kg): over 4 hours
- AUC [0-t] ([5]; single oral dose 25 mg/kg, plasma): 8083.96 h*ng/m
- gene expression change (in words) (M. tuberculosis H37Rv): strongly induced expression of kasA, kasB, acpM genes, the iniBAC operon
- MIC (M. fortuitum): > 100 µM
- EC50 (KasA): 0.131 ± 0.0182 µM

Compound: CCCCS(=O)(=O)Nc1ccc2cn[nH]c2c1 [Example 1, N-(1H-indazol-6-yl)butane-1-sulfonamide]
- inhibition of mycolic acid biosynthesis [1]: did not show any inhibition
- EC50 (KasA): 1.74 ± 0.221 µM

Compound: CCCCCS(=O)(=O)Nc1ccc2cnn(C)c2c1 [Example 11, N-(1-methyl-1H-indazol-6-yl)pentane-1-sulfonamide]
- whole-cell activity (in words) (M. tuberculosis [6]): increased the activity over the parent by twofold
- increase in potency over DG167 (M. tuberculosis [6]): 2 fold

Compound: CCCCCCS(=O)(=O)Nc1ccc2cnn(C)c2c1 [Example 12, N-(1-methyl-1H-Indazol-6-yl)hexane-1-sulfonamide]
- whole-cell activity (in words) (M. tuberculosis [6]): inactive

Compound: [2H]C([2H])([2H])n1ncc2ccc(NS(=O)(=O)CCCC)cc21 [Example 29, N-(1-(methyl-d3)-1H-indazol-6-yl)butane-1-sulfonamide]
- MLM t1/2 ([3]; mouse liver microsomes): 16.8 min

Compound: [2H]C([2H])([2H])n1ncc2ccc(NS(=O)(=O)CCCCC)cc21 [Example 30, N-(1-(methyl-d3)-1H-indazol-6-yl)pentane-1-sulfonamide]
- whole-cell activity (in words) (M. tuberculosis [6]): increased the activity over the parent by twofold
- increase in potency over DG167 (M. tuberculosis [6]): 2 fold

Compound: CCCCS(=O)(=O)N(C)c1ccc2cnn(C)c2c1 [Example 32, N-methyl-N-(1-methyl-1H-indazol-6-yl)butane-1-sulfonamide]
- whole-cell activity (in words) (M. tuberculosis [6]): loss of activity

Compound: CCCCNC(=S)Nc1ccc2cnn(C)c2c1 [Example 33, 1-Butyl-3-(1-methyl-1H-indazol-6-yl)thiourea]
- MIC (M. tuberculosis [6]; Mycobacterium tuberculosis, whole-cell): 3.1 µM (≈ 0.813 µg/mL)
- whole-cell activity (in words) (M. tuberculosis [6]): loss of activity

Compound: CCCCS(=O)(=O)Nc1ccc2[nH]nc(C)c2c1 [Example 41, N-(3-methyl-1H-indazol-5-yl)butane-1-sulfonamide]
- improvement over DG167 in MIC / whole-cell activity (M. tuberculosis [6]): 2 ×
- Kd (KasA): 0.0465 ± 0.0187 µM

Compound: Cc1n[nH]c2ccc(NS(=O)(=O)CCCCF)cc12 [Example 43, 4-Fluoro-N-(3-methyl-1H-indazol-5-yl)butane-1-sulfonamide]
- M. tuberculosis colony-forming units in the lungs (M. tuberculosis [7]): reduction of M. tuberculosis colony-forming units in the lungs

Compound: NNC(=O)c1ccncc1 [INH, isoniazid, reference compound]
- killing pattern (in words) (M. tuberculosis [2]; 10× MIC of each drug): rapid reduction of viable CFU followed by rapid re-growth
- gene expression change (in words) (M. tuberculosis H37Rv): strongly induced expression of kasA, kasB, acpM genes, the iniBAC operon

Compound: CC12C[C@@]34C=CC(=O)[C@@](C)(CCC(=O)Nc5c(O)ccc(C(=O)O)c5O)C3[C@H](CC1C4)O2 (stereo partly drawn) [platensimycin]
- whole-cell activity in M. tuberculosis (M. tuberculosis [8]): 27 µM

Compound: C=C/C(C)=C/[C@@]1(C)SC(=O)C(C)=C1O [thiolactomycin]
- whole-cell activity in M. tuberculosis (M. tuberculosis [8]): 142 µM
